From PubChem BioAssay (NCI) come the findings set out here.

Test systems include MDA-MB-231 breast; CAKI-1 renal; MDA-MB-435; RPMI-8226 leukemia; T-47D breast; COLO 205 colon; SNB-19 CNS; EKVX NSCLC; OVCAR-4 ovarian; MOLT-4 leukemia.
Assay in all cases: inhibition of tumour cell growth, NCI panel, 48 h

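Test compounds were applied to cells in 96-well plates for 48 hours at 5 doses. The concentration for 50% growth inhibition is given as GI50. TGI: concentration producing complete growth inhibition.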

For the compound `COc1ccc(CNc2nc3cc(N)cc(N)c3nc2-c2ccccc2)cc1OC`, the GI50 in the test with MDA-MB-231 breast was 4.27 µM; in the test on CAKI-1 renal it was 12.6 µM; in the test with MDA-MB-435, 2070 nM; in the test on RPMI-8226 leukemia it was 3.14 µM; in the test with T-47D breast, 4.16 µM; in the test on COLO 205 colon, 7150 nM. Besides, the GI50 in the test on SNB-19 CNS was 20.1 µM; with EKVX NSCLC it was 13 µM; in the test on OVCAR-4 ovarian it was 7.36 µM; in the test with MOLT-4 leukemia, 3.92 µM. For the same compound, the TGI was 10.6 µM in the test on MDA-MB-231 breast; 26.2 µM in the test with CAKI-1 renal; 4.05 µM with MDA-MB-435; 13.5 µM with RPMI-8226 leukemia; more than 27.5 µM with T-47D breast; more than 48.8 µM in the test on COLO 205 colon. Further, the TGI with SNB-19 CNS was more than 61 µM; in the test with EKVX NSCLC it was 44.6 µM; in the test with OVCAR-4 ovarian, 26.5 µM; with MOLT-4 leukemia, more than 100 µM.

Consider `CCOC(=O)Cc1csc(/N=C2\NC(=O)/C(=C3\C(=O)N(C)c4ccccc43)S2)n1`, for which the GI50 in the test with MDA-MB-231 breast was 37.4 µM; in the test with CAKI-1 renal it was 23.5 µM; with MDA-MB-435, 36600 nM; in the test with RPMI-8226 leukemia, 32.4 µM; in the test on T-47D breast, 81.5 µM; with COLO 205 colon it was 48700 nM. In addition, the GI50 was 52.5 µM in the test with SNB-19 CNS, 44.1 µM in the test with EKVX NSCLC, 35.2 µM in the test with OVCAR-4 ovarian and 40.3 µM in the test with MOLT-4 leukemia. Moreover, the TGI is more than 100 µM in the test on MDA-MB-231 breast; 67.9 µM in the test on CAKI-1 renal; more than 100 µM in the test on MDA-MB-435; more than 100 µM in the test on RPMI-8226 leukemia; more than 100 µM with T-47D breast; more than 100 µM in the test on COLO 205 colon. Moreover, the TGI with SNB-19 CNS, in the test on EKVX NSCLC, in the test on OVCAR-4 ovarian and in the test on MOLT-4 leukemia was more than 100 µM throughout.

Take `N=C1c2nc3n(c2C(=O)c2nc4n(c21)CCCC4)CCCC3`: the GI50 is 33.6 µM in the test on MDA-MB-231 breast; 19.1 µM in the test on CAKI-1 renal; 235 nM in the test on MDA-MB-435; 27.5 µM with RPMI-8226 leukemia; 11.7 µM with T-47D breast; 1830 nM in the test on COLO 205 colon. Further, the GI50 with SNB-19 CNS was 2.89 µM; with EKVX NSCLC, 44.7 µM; in the test with OVCAR-4 ovarian it was 24.7 µM; in the test on MOLT-4 leukemia, 47.2 µM. Moreover, the TGI in the test with MDA-MB-231 breast was more than 100 µM; with CAKI-1 renal, more than 83.2 µM; in the test with MDA-MB-435, 0.504 µM; in the test on RPMI-8226 leukemia it was more than 100 µM; in the test on T-47D breast, more than 100 µM; with COLO 205 colon, 3.39 µM. Further, the TGI is 12.5 µM in the test with SNB-19 CNS, more than 100 µM in the test with EKVX NSCLC, more than 100 µM in the test on OVCAR-4 ovarian and more than 100 µM in the test on MOLT-4 leukemia.

With `CC(C)(C)C(=O)Nc1ccccc1I(=O)=O`, the GI50 in the test with MDA-MB-231 breast is more than 100 µM; in the test with CAKI-1 renal it was more than 100 µM; with MDA-MB-435, more than 100000 nM; in the test with RPMI-8226 leukemia it was more than 100 µM; in the test on T-47D breast, more than 100 µM; with COLO 205 colon, more than 100000 nM. In addition, the GI50 in the test with SNB-19 CNS, with EKVX NSCLC, in the test with OVCAR-4 ovarian and with MOLT-4 leukemia was more than 100 µM each time. Further, the TGI with MDA-MB-231 breast, with CAKI-1 renal, in the test with MDA-MB-435, in the test with RPMI-8226 leukemia, in the test with T-47D breast and with COLO 205 colon was more than 100 µM in each case. The TGI in the test with SNB-19 CNS, in the test on EKVX NSCLC, with OVCAR-4 ovarian and in the test on MOLT-4 leukemia was more than 100 µM each time.

In the case of `C=C1CC[C@@]2(C#N)[C@H]3[C@H](CC[C@@H]2C)[C@@H](C)C[C@@H](CC(C)(C)C#N)[C@H]13`, the GI50 is 6.1 µM in the test on MDA-MB-231 breast; 1.73 µM in the test with CAKI-1 renal; 2060 nM in the test with MDA-MB-435; 0.589 µM in the test with RPMI-8226 leukemia; 2.24 µM in the test with T-47D breast; 1610 nM in the test with COLO 205 colon. Also, the GI50 in the test with SNB-19 CNS was 10.1 µM; in the test with EKVX NSCLC, 1.12 µM; with OVCAR-4 ovarian, 2.14 µM; with MOLT-4 leukemia, 3.02 µM. For the same compound, the TGI is 35.8 µM with MDA-MB-231 breast; more than 100 µM in the test with CAKI-1 renal; 95.7 µM in the test with MDA-MB-435; 26.3 µM in the test on RPMI-8226 leukemia; 10.9 µM in the test on T-47D breast; 14.4 µM in the test with COLO 205 colon. The TGI in the test on SNB-19 CNS came to 70.1 µM; in the test on EKVX NSCLC, 45.7 µM; with OVCAR-4 ovarian, 41 µM; in the test on MOLT-4 leukemia, 72.1 µM.

In the case of `CC([C@H]1CCC2C3CCC4C[C@@H](NC=O)CC[C@]4(C)C3CC[C@@]21C)N(C)C` (stereo not given in full), the GI50 with MDA-MB-231 breast was 2.38 µM; in the test with CAKI-1 renal, 4.26 µM; in the test with MDA-MB-435, 2290 nM; in the test on RPMI-8226 leukemia, 1.91 µM; in the test on T-47D breast, 1.76 µM; with COLO 205 colon, 1540 nM. In addition, the GI50 with SNB-19 CNS was 7.08 µM; in the test with EKVX NSCLC, 2.64 µM; in the test on OVCAR-4 ovarian, 4.72 µM; in the test on MOLT-4 leukemia it was 1.84 µM. The TGI in the test with MDA-MB-231 breast amounted to 5.89 µM; with CAKI-1 renal it was 11.9 µM; in the test on MDA-MB-435, 5.86 µM; in the test with RPMI-8226 leukemia, 6.6 µM; in the test with T-47D breast, 5.94 µM; in the test with COLO 205 colon, 3.11 µM. The TGI in the test with SNB-19 CNS stood at 19.5 µM; in the test on EKVX NSCLC it was 19.1 µM; in the test with OVCAR-4 ovarian, 23.1 µM; in the test with MOLT-4 leukemia it was 8.71 µM.
